# How the values were obtained:
# [1] = biological target: T1, AMPK protein (recombinant α1β1γ2) (Homo sapiens, UniProt Q13131+Q9UGJ0+Q9Y478); test: AMPK enzymatic activity (Delfia, AMARA peptide); format: biochemical; settings: compound 30 μM vs AMP 30 μM; 125 μM ATP; direct activator if ratio is 90% or higher
# T1 construct: made in house; host or cells: E. coli
# Experimental: The following biological test allows the determination of the efficacy of such compounds of formula (I) onto AMPK protein (recombinant α1β1γ2).
# Human recombinant AMPK enzyme was expressed in E. Coli and was reactivated in vitro by LKB1 prior to enzyme activity determination. AMPK enzyme activities were assayed by using A Delfia technology. AMPK enzyme activities were carried out in microtiter plates (50 mM Hepes buffer, pH 7.4 with 125 μM ATP respectively) in the presence of a synthetic peptide substrate (AMARAASAAALARRR, the “AMARA” peptide) and activators in serial dilutions. Reactions were initiated by the addition of AMPK (50-100 ng). Following mixing, the plates were incubated for 30 min at room temperature. Enzyme activity was assayed by using an anti-phosphoserine antibody to measure the quantity of phosphate incorporated into the AMARAA.
# Ratio between the % of control (basal activity) of compound of formula (I) at 30 μM and the % of control (basal activity) of AMP (natural […]) at 30 μM.
# Compounds of formula (I) are considered as direct activator of AMPK if the ratio is 90% or higher.
# [2] = tested on: ob/ob and db/db mice; settings: 8 day AICAR administration; cited from earlier work
# T1 sequence (Q13131 whole entry): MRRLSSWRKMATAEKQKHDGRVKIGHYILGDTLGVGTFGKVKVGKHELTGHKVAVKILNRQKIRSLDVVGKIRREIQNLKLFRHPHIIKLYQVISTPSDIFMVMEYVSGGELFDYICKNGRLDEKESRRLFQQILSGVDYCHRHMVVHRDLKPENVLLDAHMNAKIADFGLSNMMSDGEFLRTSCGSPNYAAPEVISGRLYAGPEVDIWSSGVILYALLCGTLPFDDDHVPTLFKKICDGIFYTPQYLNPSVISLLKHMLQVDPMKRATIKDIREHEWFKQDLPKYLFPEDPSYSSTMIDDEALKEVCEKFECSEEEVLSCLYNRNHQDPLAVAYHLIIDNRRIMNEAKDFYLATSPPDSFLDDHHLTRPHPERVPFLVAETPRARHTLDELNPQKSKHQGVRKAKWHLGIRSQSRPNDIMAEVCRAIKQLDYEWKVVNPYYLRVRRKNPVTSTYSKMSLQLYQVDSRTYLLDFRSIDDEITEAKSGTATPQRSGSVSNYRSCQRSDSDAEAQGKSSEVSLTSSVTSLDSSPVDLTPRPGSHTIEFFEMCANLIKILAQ
# T1 sequence (Q9Y478 whole entry): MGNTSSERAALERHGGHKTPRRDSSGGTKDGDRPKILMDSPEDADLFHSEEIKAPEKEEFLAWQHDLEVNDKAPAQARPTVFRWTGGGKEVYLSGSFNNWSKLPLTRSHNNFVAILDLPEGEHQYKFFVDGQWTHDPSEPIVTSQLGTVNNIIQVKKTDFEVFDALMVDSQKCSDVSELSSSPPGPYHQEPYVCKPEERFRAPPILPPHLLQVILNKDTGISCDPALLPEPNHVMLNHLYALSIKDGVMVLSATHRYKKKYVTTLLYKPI
# T1 sequence (Q9UGJ0 whole entry): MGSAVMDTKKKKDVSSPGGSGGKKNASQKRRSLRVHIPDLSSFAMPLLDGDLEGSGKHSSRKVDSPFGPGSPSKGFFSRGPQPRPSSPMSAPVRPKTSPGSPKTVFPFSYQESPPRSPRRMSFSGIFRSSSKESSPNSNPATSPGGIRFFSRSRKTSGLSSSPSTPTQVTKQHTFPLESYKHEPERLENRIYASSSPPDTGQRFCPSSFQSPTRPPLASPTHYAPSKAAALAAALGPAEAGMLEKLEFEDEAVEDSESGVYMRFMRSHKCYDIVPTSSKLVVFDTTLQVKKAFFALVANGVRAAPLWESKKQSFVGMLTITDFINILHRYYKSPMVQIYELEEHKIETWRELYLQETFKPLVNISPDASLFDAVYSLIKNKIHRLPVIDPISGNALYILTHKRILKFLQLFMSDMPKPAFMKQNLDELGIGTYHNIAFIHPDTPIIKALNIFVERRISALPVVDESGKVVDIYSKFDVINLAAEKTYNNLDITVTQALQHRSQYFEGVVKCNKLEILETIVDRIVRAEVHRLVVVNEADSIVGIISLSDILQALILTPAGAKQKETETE
SMILES,Activity: ratio between the % of control (basal activity) of compound at 30 μM and the % of control (basal activity) of AMP at 30 μM [1] [%],reduction of blood glucose [2] [%]
"O=c1[nH]c2cccc(O)c2[nH]c1=O [5-hydroxy-1,4-dihydroquinoxaline-2,3-dione]",130,
NC(=O)c1ncn([C@@H]2O[C@H](CO)[C@@H](O)[C@H]2O)c1N [AICAR],,35
"CC(=O)Oc1cccc2[nH]c(=O)c(=O)[nH]c12 [Acetic acid 2,3-dioxo-1,2,3,4-tetrahydro-quinoxalin-5-yl ester]",120,
